Laboratory results reported in ChEMBL document CHEMBL3046062, “Anti-HIV, antimycobacterial and antimicrobial studies of newly synthesized 1,2,4-triazole clubbed benzothiazoles” (Med Chem Res, 2013).
≈ marks a conversion by molar mass, not a printed value.

What was measured:
[1] = system: Mycobacterium tuberculosis; assay: Antitubercular activity against Mycobacterium tuberculosis H37Rv after 28 days by Lowenstein-Jensen agar method; assay type: functional; settings: 672 h
[2] = system: Aspergillus clavatus; assay: Antifungal activity against Aspergillus clavatus MTCC 323 after overnight incubation by broth microdilution method; assay type: functional
[3] = system: Staphylococcus aureus; assay: Antibacterial activity against Staphylococcus aureus MTCC 96 after overnight incubation by broth microdilution method; assay type: functional
[4] = system: Mycobacterium tuberculosis; assay: Growth inhibition of Mycobacterium tuberculosis H37Rv at MIC after 28 days by Lowenstein-Jensen agar method; assay type: functional
[5] = system: Escherichia coli; assay: Antibacterial activity against Escherichia coli MTCC 442 after overnight incubation by broth microdilution method; assay type: functional
[6] = Cytotoxicity against Homo sapiens (human) MT4 cells after 5 days by MTT assay; assay type: cell-based
[7] = system: Candida albicans; assay: Antifungal activity against Candida albicans MTCC 227 after overnight incubation by broth microdilution method; assay type: functional
[8] = system: Human immunodeficiency virus 2; assay: Antiviral activity against Human immunodeficiency virus type 2 (ISOLATE ROD) infected MT4 cells assessed as inhibition of virus-induced cytopathogenicity after 5 days by MTT assay; assay type: functional, organism-based; settings: Human immunodeficiency virus 2, ISOLATE ROD, MT4, 120 h
[9] = system: Pseudomonas aeruginosa; assay: Antibacterial activity against Pseudomonas aeruginosa MTCC 2488 after overnight incubation by broth microdilution method; assay type: functional
[10] = Selectivity index, ratio of CC50 for human MT4 cells to IC50 for HIV1 3B; assay type: functional
[11] = system: Human immunodeficiency virus 1; assay: Antiviral activity against Human immunodeficiency virus 1 IIIB infected MT4 cells assessed as inhibition of virus-induced cytopathogenicity after 5 days by MTT assay; assay type: functional, organism-based; settings: MT4, 120 h
[12] = system: Aspergillus niger; assay: Antifungal activity against Aspergillus niger MTCC 282 after overnight incubation by broth microdilution method; assay type: functional
[13] = system: Streptococcus pyogenes; assay: Antibacterial activity against Streptococcus pyogenes MTCC 443 after overnight incubation by broth microdilution method; assay type: functional
[14] = Selectivity index, ratio of CC50 for human MT4 cells to IC50 for HIV2 ROD; assay type: functional

SMILES: Clc1ccc(-c2nnc(-c3cccnc3)o2)cc1
- MIC [1]: 500 µg/mL (≈ 1940 µM)
- MIC99 [2]: 1000 µg/mL (≈ 3880 µM)
- MIC99 [3]: 200 µg/mL (≈ 776 µM)
- growth inhibition (GI) [4]: 98%
- MIC99 [5]: 500 µg/mL (≈ 1940 µM)
- CC50 at 120 h [6]: 4.49 µg/mL (≈ 17.4 µM)
- MIC99 [7]: 500 µg/mL (≈ 1940 µM)
- IC50 [8]: > 4.49 µg/mL
- MIC99 [9]: 500 µg/mL (≈ 1940 µM)
- Ratio CC50/IC50 [10]: <1
- IC50 [11]: > 4.49 µg/mL
- MIC99 [12]: 1000 µg/mL (≈ 3880 µM)
- MIC99 [13]: 250 µg/mL (≈ 970 µM)
- Ratio CC50/IC50 [14]: <1

SMILES: Fc1ccc2nc(Nn3c(-c4ccc(Cl)cc4)nnc3-c3cccnc3)sc2c1
- MIC [1]: 62.5 µg/mL (≈ 148 µM)
- MIC99 [2]: 500 µg/mL (≈ 1180 µM)
- MIC99 [3]: 250 µg/mL (≈ 591 µM)
- growth inhibition (GI) [4]: 98%
- MIC99 [5]: 500 µg/mL (≈ 1180 µM)
- CC50 at 120 h [6]: 92.9 µg/mL (≈ 220 µM)
- MIC99 [7]: 200 µg/mL (≈ 473 µM)
- IC50 [8]: > 92.9 µg/mL
- MIC99 [9]: 62.5 µg/mL (≈ 148 µM)
- Ratio CC50/IC50 [10]: <1
- IC50 [11]: > 92.9 µg/mL
- MIC99 [12]: 500 µg/mL (≈ 1180 µM)
- MIC99 [13]: 500 µg/mL (≈ 1180 µM)
- Ratio CC50/IC50 [14]: <1

SMILES: Clc1ccc(-c2nnc(-c3cccnc3)n2Nc2nc3ccc(Br)cc3s2)cc1
- MIC [1]: 500 µg/mL (≈ 1030 µM)
- MIC99 [2]: 1000 µg/mL (≈ 2070 µM)
- MIC99 [3]: 500 µg/mL (≈ 1030 µM)
- growth inhibition (GI) [4]: 96%
- MIC99 [5]: 500 µg/mL (≈ 1030 µM)
- CC50 at 120 h [6]: 29.6 µg/mL (≈ 61.2 µM)
- MIC99 [7]: 100 µg/mL (≈ 207 µM)
- IC50 [8]: > 29.6 µg/mL
- MIC99 [9]: 500 µg/mL (≈ 1030 µM)
- Ratio CC50/IC50 [10]: <1
- IC50 [11]: > 29.6 µg/mL
- MIC99 [12]: 500 µg/mL (≈ 1030 µM)
- MIC99 [13]: 1000 µg/mL (≈ 2070 µM)
- Ratio CC50/IC50 [14]: <1
